Patent US20080039337A1, “Method for Detection of Conformational Change of a Protein Immobilized on a Substrate” (FUENCE CO., LTD., priority 2004, published 2008)

Biological target: T1, Amyloid β (1-42) (Homo sapiens, UniProt P05067)
T1 construct: Amyloid β (1-42); purchased Bachem AG, Bubendorf, Switzerland (printed 'Bachem A G, Budendorf')
Assay: Detection of conformational change to β-sheet structure of amyloid β (1-42) film immobilized on a substrate, by fluorescent dye binding
Format: biochemical
Conditions: film immersed into 1 mM ZnCl2 in 10 mM Hepes pH 7.4, 0.15 M NaCl for 10 minutes; dye 1-fluoro-2,5-bis(3-carboxy-4-hyrdoxystyryl)benzene; compared with buffer only and with EDTA after ZnCl2
Protocol: Amyloid β (1-42) (Bachem A G, Budendorf, Switzerland) was dissolved in 0.1% ammonia water at the concentration of 1 mg/mL. This solution was sprayed under dry air using an electrospry device described in WO 2002-511792 or an immobilzing device described in Japanese Patent Publication No. 2003-136005. The solution was permeated through a mask with holes of 400 μm in length and 800 μm in width, and then a film having 1 μm thickness was prepared using an electrospray method (the EDS method), then protein was cross-linked at 30° C. for 5 minutes by glutaraldehyde.
The resulting film was immersed into 10 mM Hepes pH 7.4 buffer solution (hereinafter referred to as “the buffer solution”) containing 0.15 M NaCl for 10 minutes, in the presence or absence of ZnCl2, except that the EDTA sample was only reacted with 1 mM ZnCl2 and then immersed in a buffer solution containing 1 mM EDTA for 10 minutes. After that the film was immersed into a solution of 1-fluoro-2,5-bis(3-carboxy-4-hyrdoxystyryl)benzene (Dojindo Chemical Laboratory Co., Kumamoto) that binds to β-sheet structure, prepared to the final concentration of 0.01% using 50% ethanol solution. Furthermore, the film was immersed into a solution of saturated lithium carbonate, then it was lightly washed by 50% ethanol, then dried and observed under fluorescent microscope. […]

T1 sequence (P05067 672-713): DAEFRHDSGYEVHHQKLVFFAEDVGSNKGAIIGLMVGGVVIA

[Cl-].[Cl-].[Zn+2] [ZnCl2]
fluorescent intensity of the film (relative intensity), indicating change of amyloid β to β sheet structure: the highest
